Experimental data from ChEMBL document CHEMBL3044756, “Distribution of trunk-injected ¹⁴C-imidacloprid in ash trees and effects on emerald ash borer (Coleoptera: Buprestidae) adults” (2009).

Key:
Type in all cases: functional
Agrilus planipennis [1] = test: Insecticidal activity against Agrilus planipennis infected ash trees assessed as mortality at 25 uCi treated by trunk injection measured after 45 days
Agrilus planipennis [2] = test: Insecticidal activity against Agrilus planipennis isolated from 21 days after 25 uCi compound treated by trunk injected ash tree leaves assessed as mortality at 64 ug/g
Agrilus planipennis [3] = test: Insecticidal activity against Agrilus planipennis infected ash trees assessed as mortality at 25 uCi treated by trunk injection measured after 21 days
Agrilus planipennis [4] = test: Insecticidal activity against Agrilus planipennis isolated from 21 days after 25 uCi compound treated by trunk injected ash tree leaves assessed as mortality measured after 3 days of feeding
Agrilus planipennis [5] = test: Insecticidal activity against Agrilus planipennis isolated from 45 days after 25 uCi compound treated by trunk injected ash tree leaves assessed as mortality measured after 3 days of feeding
Agrilus planipennis [6] = test: Insecticidal activity against Agrilus planipennis isolated from 21 days after 25 uCi compound treated by trunk injected ash tree leaves assessed as mortality at 0.55 to 60 ug/g

Structure (SMILES): O=[N+]([O-])/N=C1\NCCN1Cc1ccc(Cl)nc1 [IMIDACLOPRID]
- Activity (Agrilus planipennis [1]): 17%
- Activity (Agrilus planipennis [2]): 70%
- Activity (Agrilus planipennis [3]): 11%
- Activity (Agrilus planipennis [4]): 44%
- Activity (Agrilus planipennis [5]): 70%
- Activity (Agrilus planipennis [6]): 11%
